# Measurements: publication PMC12084609, “Structural insights into small-molecule agonist recognition and activation of complement receptor C3aR” (The EMBO Journal, 2025)
# Residue numbers refer to the chain shown, from its start. Several values for one entry are separate records, joined by “and”; a condition that tells them apart may be missing. Equal entries are not always repeated. Where two headings read alike, the source gives them in different places.
# Experiments:
# Assay type in all cases: cell-based
# [1] = target: T1, C3aR H81^2.63A (Homo sapiens, UniProt Q16581, H81A); experiment: GloSensor-based cAMP assay, C3aR mutant H81A
# T1 construct: expressed in transfected cells; host or cells: HEK293T
# T1 sequence (Q16581 1-482 H81A): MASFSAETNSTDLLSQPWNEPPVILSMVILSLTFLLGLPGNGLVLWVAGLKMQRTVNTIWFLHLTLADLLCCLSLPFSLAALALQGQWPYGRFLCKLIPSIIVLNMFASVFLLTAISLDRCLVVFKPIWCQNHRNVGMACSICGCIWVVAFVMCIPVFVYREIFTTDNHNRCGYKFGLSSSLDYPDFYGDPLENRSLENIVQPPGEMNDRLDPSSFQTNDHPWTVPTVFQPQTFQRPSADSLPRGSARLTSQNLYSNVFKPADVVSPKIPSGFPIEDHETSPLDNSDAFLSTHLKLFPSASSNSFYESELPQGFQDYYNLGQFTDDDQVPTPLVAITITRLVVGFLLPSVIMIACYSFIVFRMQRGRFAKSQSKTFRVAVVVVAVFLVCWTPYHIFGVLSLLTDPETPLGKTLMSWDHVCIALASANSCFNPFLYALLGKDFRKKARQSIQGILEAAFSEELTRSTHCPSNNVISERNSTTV
# Description: (§1) HEK293T cells were seeded on 6-well plates (NEST) and transfected with pGlosensor™-22F plasmids (Promega) and pcDNA3.1 plasmids encoding C3aR or its mutants an with N-terminal FLAG tag. After 48 h, cells were detached with Accutase solution (Sigma-Aldrich) and washed with PBS, and resuspended in assay buffer (CO2-independent medium with 0.5 mg mL^−1D-luciferin). 100,000–200,000 cells were seeded on 96-well white bottom plates (SPL) and incubated at 37 °C for 45 min followed by 45 min incubation at room temperature. After 90 min of incubation, basal luminescence signals were recorded. In total, 25 μl of test ligand with various concentrations and 1 μM Forskolin (Sigma-Aldrich) were treated to the cells and luminescence signals were measured by Tristar 2 LB 942 multimode reader (Berthold). […] Relative luminescence unit (%) was calculated with the signal of wells treated with vehicle as 0% and the signal of wells treated with 1 μM Forskolin as 100% (DiRaddo et al, [2014]). Nonlinear regression was performed using a three-parameter logistic equation.
# [2] = target: T2, C3aR Y174^ECL2A (Homo sapiens, UniProt Q16581, Y174A); experiment: GloSensor-based cAMP assay, C3aR mutant Y174A
# T2 construct: expressed in transfected cells; host or cells: HEK293T
# T2 sequence (Q16581 1-482 Y174A): T1 sequence (Q16581 1-482 H81A) with A81H, Y174A
# Description: as §1
# [3] = target: T3, C3aR H418^7.36A (Homo sapiens, UniProt Q16581, H418A); experiment: GloSensor-based cAMP assay, C3aR mutant H418A
# T3 construct: expressed in transfected cells; host or cells: HEK293T
# T3 sequence (Q16581 1-482 H418A): T1 sequence (Q16581 1-482 H81A) with A81H, H418A
# Description: as §1
# [4] = Dunnett's multiple comparisons test, WT minus mutant
compound,measurement,setting,value
"Cc1cc(C(c2ccc(Cl)cc2)c2ccc(Cl)cc2)sc1C(=O)N[C@@H](CCCNC(=N)N)C(=O)O [JR14a, reference compound]","Mean Diff. of pIC50, WT vs. H81A",[1]; [4],0.544
same,remaining activity at 0.001 µM,"[1]; H81A, Log[JR14a (M)] -9, single replicates, read-out: cAMP response (% Forskolin)",94.5%
same,remaining activity at 0.0001 µM,"[1]; H81A, Log[JR14a (M)] -10, single replicates, read-out: cAMP response (% Forskolin)",95.5%
same,remaining activity at 10 pM,"[1]; H81A, Log[JR14a (M)] -11, single replicates, read-out: cAMP response (% Forskolin)",93.3%
same,ΔpIC50 ± SE of Diff.,[1]; H81^2.63A relative to WT C3aR,-0.54 ± 0.05
same,IC50,"[1]; H81^2.63A, individual replicates, read-out: pIC50 (Replicate) (converted)",6.31 nM
same,IC50,"[1]; IC50, H81^2.63A, dose-response plot",12.4 nM
same,IC50,"[1]; pIC50 (Replicate), H81^2.63A, individual replicates",12 nM and 16.2 nM and 18.2 nM
same,"Mean Diff. of pIC50, WT vs. Y174A",[2]; [4],-0.215
same,IC50,"[2]; IC50, Y174^ECL2A, dose-response plot",1.61 nM
same,remaining activity at 1 µM,"[2]; Y174A, Log[JR14a (M)] -6, single replicates, read-out: cAMP response (% Forskolin)",10.9%
same,remaining activity at 0.1 µM,"[2]; Y174A, Log[JR14a (M)] -7, single replicates, read-out: cAMP response (% Forskolin)",11.8%
same,remaining activity at 0.01 µM,"[2]; Y174A, Log[JR14a (M)] -8, single replicates, read-out: cAMP response (% Forskolin)",40.7%
same,remaining activity at 0.0001 µM,"[2]; Y174A, Log[JR14a (M)] -10, single replicates, read-out: cAMP response (% Forskolin)",95.8%
same,remaining activity at 10 pM,"[2]; Y174A, Log[JR14a (M)] -11, single replicates, read-out: cAMP response (% Forskolin)",106%
same,ΔpIC50 ± SE of Diff.,[2]; Y174^ECL2A relative to WT C3aR,0.22 ± 0.09
same,decrease in IC50 values vs WT,"[2]; Y174^ECL2 to Ala, relatively mild effect on downstream signaling",< 10 fold
same,IC50,"[2]; pIC50 (Replicate), Y174^ECL2A, individual replicates",3.63 nM and 1.55 nM and 0.871 nM
same,IC50,"[2]; pIC50 ± SEM (Mean), Y174^ECL2A, mean of independent experiments",1.7 nM
same,"Mean Diff. of pIC50, WT vs. H418A",[3]; [4],-0.145
same,ΔpIC50 ± SE of Diff.,[3]; H418^7.36A relative to WT C3aR,0.14 ± 0.08
same,IC50,"[3]; H418^7.36A, mean of independent experiments, read-out: pIC50 ± SEM (Mean) (converted)",2.51 nM
same,IC50,"[3]; IC50, H418^7.36A, dose-response plot",2.56 nM
same,IC50,"[3]; pIC50 (Replicate), H418^7.36A, individual replicates",2.04 nM and 4.07 nM and 4.79 nM and 0.977 nM
